Laboratory results as given in article PMC7997578, “Design, Synthesis, Dynamic Docking, Biochemical Characterization, and in Vivo Pharmacokinetics Studies of Novel Topoisomerase II Poisons with Promising Antiproliferative Activity” (Journal of Medicinal Chemistry, 2020).
Converted amounts (≈) assume the structure as drawn. Where two headings read alike, the source gives them in different places.

Columns and labels:
human topoIIα = biological target: T1, human topoIIα (Homo sapiens, UniProt P11388); assay: topoII decatenation assay (Inspiralis); assay type: biochemical
T1 construct: purchased Inspiralis
T1 sequence (P11388 whole entry): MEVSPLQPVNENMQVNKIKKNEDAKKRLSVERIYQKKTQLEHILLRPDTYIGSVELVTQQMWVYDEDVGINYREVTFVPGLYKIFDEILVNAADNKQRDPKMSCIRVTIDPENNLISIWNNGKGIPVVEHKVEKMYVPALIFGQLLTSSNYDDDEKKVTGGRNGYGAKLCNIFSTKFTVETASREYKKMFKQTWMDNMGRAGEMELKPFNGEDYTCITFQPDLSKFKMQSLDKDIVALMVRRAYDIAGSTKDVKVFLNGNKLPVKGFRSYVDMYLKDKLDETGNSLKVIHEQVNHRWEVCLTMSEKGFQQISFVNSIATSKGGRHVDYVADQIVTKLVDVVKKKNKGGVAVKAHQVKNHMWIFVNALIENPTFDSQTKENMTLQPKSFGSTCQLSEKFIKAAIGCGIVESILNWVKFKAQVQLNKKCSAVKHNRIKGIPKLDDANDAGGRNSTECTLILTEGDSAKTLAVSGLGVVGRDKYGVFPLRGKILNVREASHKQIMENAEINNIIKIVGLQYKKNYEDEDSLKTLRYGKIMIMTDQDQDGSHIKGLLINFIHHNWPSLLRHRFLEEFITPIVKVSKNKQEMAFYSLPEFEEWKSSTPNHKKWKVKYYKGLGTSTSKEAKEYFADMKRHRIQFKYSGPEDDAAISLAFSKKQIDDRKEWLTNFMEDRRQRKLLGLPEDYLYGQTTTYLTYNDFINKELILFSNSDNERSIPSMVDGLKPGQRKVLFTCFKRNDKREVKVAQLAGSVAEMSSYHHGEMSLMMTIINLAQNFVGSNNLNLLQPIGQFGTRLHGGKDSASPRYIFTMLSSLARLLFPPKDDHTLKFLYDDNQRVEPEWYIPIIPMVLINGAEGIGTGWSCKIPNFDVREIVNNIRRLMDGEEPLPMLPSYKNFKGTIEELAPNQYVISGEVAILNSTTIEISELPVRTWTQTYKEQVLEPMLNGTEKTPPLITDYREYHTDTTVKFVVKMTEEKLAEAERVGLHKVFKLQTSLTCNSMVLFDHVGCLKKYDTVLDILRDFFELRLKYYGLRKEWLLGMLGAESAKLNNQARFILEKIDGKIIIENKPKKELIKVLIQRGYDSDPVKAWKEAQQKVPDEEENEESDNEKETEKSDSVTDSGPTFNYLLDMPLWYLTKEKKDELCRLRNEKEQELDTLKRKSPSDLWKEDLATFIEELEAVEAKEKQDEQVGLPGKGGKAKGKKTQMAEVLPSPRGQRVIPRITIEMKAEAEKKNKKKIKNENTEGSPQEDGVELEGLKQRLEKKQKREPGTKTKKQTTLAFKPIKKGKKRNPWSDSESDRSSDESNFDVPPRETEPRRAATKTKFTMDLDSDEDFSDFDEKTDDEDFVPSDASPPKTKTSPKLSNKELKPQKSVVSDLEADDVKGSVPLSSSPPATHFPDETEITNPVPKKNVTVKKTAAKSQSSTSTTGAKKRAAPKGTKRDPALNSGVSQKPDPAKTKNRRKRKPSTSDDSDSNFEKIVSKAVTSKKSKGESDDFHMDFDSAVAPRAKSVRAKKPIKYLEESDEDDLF
Method: We measured the inhibitor activity of our new compounds against human topoIIα, using a topoII decatenation assay (Table 1).
The activity of topoIIα was measured using a decatenation assay (Inspiralis) following the manufacturer’s instructions. Compounds were dissolved in DMSO and used at a concentration ranging from 200 to 1 μM. Final DMSO concentration in the assay was ≤1%. Reaction mixtures were incubated for 30 min at 37 °C and terminated with STEB buffer (40% (w/v) sucrose, 100 mM Tris-HCl, pH 8, 1 mM EDTA, 0.5 mg/mL bromophenol blue). Reaction products were resolved by electrophoresis in 1% agarose gels containing SYBR Safe DNA stain (Invitrogen), scanned, and quantified using the ChemiDoc system (BioRad). IC50 values were obtained with GraphPad Prism software (version 5.03) using the band intensities of the dose–response gels. Values are reported as the mean ± SD of two independent experiments.

HeLa cells = assay: cell viability MTT assay, HeLa; assay type: cell-based, human; conditions: HeLa cervical cancer cells, mean ± SD of two experiments, read-out: HeLa antiproliferative activity IC50
Method: (§1) The antiproliferative activity of all compounds was evaluated in (i) DU145, an androgen-independent prostate cancer cell line; (ii) HeLa, a cervical cancer cell line; and (iii) A549, a lung adenocarcinoma cell line (Table 1). […] Undoubtedly, this preliminary cytotoxicity data will need further characterization, also in relation to the in vitro activity of these compounds.
(§2) Human cancer cell lines A549 (lung adenocarcinoma, ATCC CCL-185), DU-145 (androgen-independent prostate cancer, ATCC HTB-81), and HeLa (cervical carcinoma, ATCC CCL-2) were obtained from ATCC. Cells were routinely grown in minimal essential medium containing Eagle’s salts and L-glutamine supplemented with 10% heat-inactivated FBS in a humidified atmosphere of 5% CO2 at 37 °C. To assess the antiproliferative activity of the compounds, cells were seeded at a density of 2500 cells/well (HeLa) or 5000 cells/well (A549, DU-145) in 96-well plates, and cell viability was measured using the MTT assay as described previously.[39] Values are reported as the mean ± SD of two independent experiments.

A549 cells = assay: cell viability MTT assay, A549; assay type: cell-based, human; conditions: mean ± SD of two experiments, read-out: A549 antiproliferative activity IC50
Method: as §1, §2

DU145 cells = assay: cell viability MTT assay, DU145; assay type: cell-based, human; conditions: mean ± SD of two experiments, read-out: DU145 antiproliferative activity IC50
Method: as §1, §2

[1] = aqueous kinetic solubility; assay type: physicochemical; conditions: PBS, pH 7.4, PBS pH 7.4, target 250 µM, 2.5% DMSO, 25°C
Method: 1. In vitro m etabolic stabili ty
In vitro microsomial stability. 10mM DMSO stock solution of test compound was pre-incubated at 37 °C for 15min with mouse liver microsomes added 0.1M Tris-HCl buffer (pH 7.4). The final concentration was 4.6µM. After pre -incubation, the co-factors (NADPH, G6P, G6PDH and MgCl2 pre-dissolved in 0.1M Tris-HCl) were added to the incubation mixture and the incubation was continued at 37 °C for 1h. At each time point (0, 5, 15, 30, 60min), 30µL of incubation mixture was diluted with 200µL cold CH 3CN spiked with 200n M of internal standard, followed by centrifugation at 3500g for 15min. The supernatant was further diluted with H2O (1:1) for analysis. The concentration of test compound was quantified by LC/MS-MS on a Waters ACQUITY UPLC/M S TQD system consisting of a TQD (Triple Quadrupole Detector) Mass Spectrometer equipped with an Electrospray Ionization interface. The analyses were run on an ACQUITY UPLC BEH C18 (50x2.1mmID, particle size 1.7µm) with a VanGuard BEH C18 pre -column (5x2.1mmID, particle size 1.7µm) at 40°C, using 0.1% HCOOH in H 2O (A) and 0.1% HCOOH in CH 3CN (B) as mobile phase. Electrospray ionization (ESI) was app lied in positive mode . The percentage of test compound remaining at each time point relative to t=0 was calculated. The half -lives (t½) were determined by an one-phase decay equation using a non -linear regression of compound concentration versus time.
In vitro Plasma Stability. 10mM DMSO stock solution of test compound was diluted 50 -fold with DMSO-H2O (1:1) and incubated at 37 °C for 2 h with mouse plasma added 5% DMSO (pre-heated at 37 °C for 10 min). The final concentration was 2µM. At each time point (0, 5, 15, 30, 60, 120min), 50 µL of incubation mixture was diluted with 200µL cold CH3CN spiked with 200nM of internal standard, followed by centrifugation at 3500g for 20min. The supernatant was further diluted with H2O (1:1) for analysis. The concentration of test compound was quantified by LC/MS-MS on a Waters ACQUITY UPLC/MS TQD system consisting of a TQD (Triple Quadrupole Detector) Mass Spectrometer equipped with an Electrospray Ionization interface. The analyses were run on an ACQUITY UPLC BEH C18 (50x2.1mmID, particle size 1.7µm) with a VanGuard BEH C18 pre - column (5x2.1mmID, particle size 1.7µm) at 40°C, using 0.1% HCOOH in H2O (A) and 0.1% HCOOH in CH3CN (B) as mobile phase. Electrospray ionization (ESI) was applied in positive mode.
The response factors, calculated on the basis of the internal standard peak area, were plotted over time. When possible, response vs. time profiles were fitted with Prism (GraphPad Software, Inc., USA) to estimate compounds half-life in plasma.
2. Aqueous ki netic solu bili ty
The aqueous kinetic solubility was determined from a 10mM DMSO stock solution of test compound in Phosphate Buffered Saline (PBS) at pH 7.4. The study was performed by incubation of an aliquot of 10mM DMSO stock solution in PBS (pH 7.4) at a target concentration of 250µM resulting in a final concentration of 2.5% DMSO. The incubation was carried out under shaking at 25°C for 24h followed by centrifugation at 21.100g for 30min. The supernatant was analyzed by UPLC/MS for the quantification of dissolved compound by UV at a specific wavelength (215nm).
The analyses were performed on a Waters ACQUITY UPLC/MS SQD system consisting of a SQD (Single Quadrupole Detector) Mass Spectrometer equipped with Electrospray Ionization interface.
The analyses were run on an ACQUITY UPLC BEH C18 column (50x2.1mmID, particle size 1.7µm) with a VanGuard BEH C18 pre-column (5x2.1mmID, particle size 1.7µm), using 10mM NH4OAc in H2O at pH 5 adjusted with AcOH (A) and 10mM NH4OAc in MeCN-H2O (95:5) at pH 5 (B) as […]

[2] = human topoIIα decatenation assay, mean ± SD of two independent experiments, read-out: IC50
[3] = Homo sapiens, A549, A549 lung adenocarcinoma cells
[4] = Homo sapiens, DU-145, DU145 prostate cancer cells
[5] = topoIIα decatenation IC50 versus ARN16267

Row | SMILES | IC50 (human topoIIα; [2]) [µM] | IC50 (HeLa cells; Homo sapiens, HeLa) [µM] | IC50 (A549 cells; [3]) [µM] | IC50 (DU145 cells; [4]) [µM] | fold drop in activity compared to ARN16267 (human topoIIα; [5]) [fold] | IC50 (HeLa cells) [µM] | IC50 (A549 cells; A549 lung adenocarcinoma cells) [µM] | IC50 (DU145 cells; DU145 prostate cancer cells) [µM] | solubility kinetic at 24 h [1] [µM] | fold increased activity compared to ARN16267 (human topoIIα; [5]) [fold] | IC50 (human topoIIα) [µM]
1 | COc1cc(NC(=O)c2c(O)n(-c3ccccc3)c(=S)n(-c3ccccc3)c2=O)ccc1F [3j] | 22.5 ± 5.8 | 5.3 ± 1 | 4.6 ± 0.1 | 7.8 ± 0.6 |  |  |  |  |  |  | 
2 | COc1cccc(CNC(=O)c2c(O)n(-c3ccccc3)c(=S)n(-c3ccccc3)c2=O)c1 [5d, 6-Hydroxy-N-(3-methoxybenzyl)-4-oxo-1,3-diphenyl-2-thioxo-1,2,3,4-tetrahydropyrimidine-5-carboxamide] | 22.5 ± 7.2 | 6.1 ± 1.1 | 4.8 ± 0.4 | 7.7 ± 0.1 | 1.4 |  |  |  |  |  | 
3 | COc1cccc(CCNC(=O)c2c(O)n(-c3ccccc3)c(=S)n(-c3ccccc3)c2=O)c1 [5e, 6-Hydroxy-N-(3-methoxyphenethyl)-4-oxo-1,3-diphenyl-2-thioxo-1,2,3,4-tetrahydropyrimidine-5-carboxamide] | 15.8 ± 3.4 | < 5 | < 5 | < 5 |  | 3.4 ± 0.1 | 3.2 ± 1.2 | 3.3 ± 2.5 | 122 (≈ 57.8 µg/mL) |  | 
4 | COc1cccc(/C=C/CNC(=O)c2c(O)n(-c3ccccc3)c(=S)n(-c3ccccc3)c2=O)c1 [5f, (E)-6-Hydroxy-N-(3-(3-methoxyphenyl)allyl)-4-oxo-1,3-diphenyl-2-thioxo-1,2,3,4-tetrahydropyrimidine-5-carboxamide] | 8.3 ± 2.3 | 5.5 ± 1.1 | 4.4 ± 0.6 | 5 ± 2.9 |  |  |  |  |  | 2 | 
5 | COc1cc(CNC(=O)c2c(O)n(-c3ccccc3)c(=S)n(-c3ccccc3)c2=O)cc(OC)c1O [compound 6, 6-Hydroxy-N-(4-hydroxy-3,5-dimethoxybenzyl)-4-oxo-1,3-diphenyl-2-thioxo-1,2,3,4-tetrahydropyrimidine-5-carboxamide] | 108 ± 10.1 | 19.1 ± 4.8 | 14.7 ± 0.3 | 8.8 ± 0.3 | 7 |  |  |  |  |  | > 100
6 | COc1cc(CCNC(=O)c2c(O)n(-c3ccccc3)c(=S)n(-c3ccccc3)c2=O)cc(OC)c1O [compound 7, 6-Hydroxy-N-(4-hydroxy-3,5-dimethoxyphenethyl)-4-oxo-1,3-diphenyl-2-thioxo-1,2,3,4-tetrahydropyrimidine-5-carboxamide] | 74.4 ± 13.6 | 13.3 ± 1.7 | 14.8 ± 1.4 | 13.9 ± 7.6 |  |  |  |  |  |  | 
7 | COc1cc(/C=C/CNC(=O)c2c(O)n(-c3ccccc3)c(=S)n(-c3ccccc3)c2=O)cc(OC)c1O [compound 8, (E)-6-Hydroxy-N-(3-(4-hydroxy-3,5-dimethoxyphenyl)allyl)-4-oxo-1,3-diphenyl-2-thioxo-1,2,3,4-tetrahydropyrimidine-5-carboxamide] | 28 ± 4.4 | 9.3 ± 0.2 | 9.5 ± 1.5 | 9.8 ± 2.1 |  |  |  |  |  |  | 
